# Several values for one entry are separate records, joined by “and”; a condition that tells them apart may be missing. Identical values can stand only once. Like-named read-outs stand apart in the source and are kept apart here. No end group written: not given here.
# Key:
# [1] = test system: sensitized sheep erythrocytes (SRBCs), human serum as complement; assay: Sheep red blood cell lysis assay (SRBC assay); format: cell-based
# [2] = test system: binding of rabbit Ig-HRP by solid phase Protein A; assay: Inhibition of binding of Ig-HRP to solid phase Protein A
# Procedure: Protein A (recombinant Protein A from Repligen, Cambridge, Mass.) diluted to 1 μg/ml in coating buffer (0.1M NaHCO3, pH 9.0) was incubated in the wells of a microtiter plate (100 μl per well) for 2 hours at 37° C. Uncoated surfaces of the wells were blocked by adding 340 μl PBSC (9 mM Na2 HPO4, 1 mM NaH2 PO4, pH 7.2, 154 mM NaCl, 1 mg/ml casein or ovalbumin, and 0.01% thimerosal), incubating the plate 1 hour at 37° C., and then washing the wells 3 times with PBSCT (PBSC plus 0.1% Tween 20 (polyoxyethylene sorbitan monolaurate)). Dilutions of rabbit immunoglobulin labeled with horseradish peroxidase (Ig-HRP) (Zymed Laboratories, Inc., South San Francisco, Calif.) in PBS (9 mM Na2 HPO4, 1 mM NaH2 PO4, pH 7.2, 154 mM NaCl) were incubated in the wells (100 μl per well) for 2 hours at 37° C. followed by washing 3 times with PBS. OPD substrate buffer (0.8 mg/ml o-phenylenediamine, 0.1M Na2 HPO4, 0.05M sodium citrate, pH 5.5, plus 0.15% (v/v) H2 O2) was then added to the wells (100 μl/well), and the resultant colored product was measured with a Titertek Multiskan plate reader using a 414 nm filter.
# OPD substrate buffer was then added (100 μl/well), and the resulting colored product was measured at 414 nm in a Titertek Multiskan plate reader.
# 8. […] Then the inhibition assay using solid phase Protein A was performed as described above.
# [3] = biological target: binding of rabbit Ig-HRP to solid phase C1q; assay: Inhibition of binding of Ig-HRP to solid phase C1q
# Procedure: C1q (gift of Dr. Lawrence Potempa, Immtech International Inc., Evanston, Ill.) diluted to 10 μg/ml in coating buffer was placed in the wells of a microtiter plate (100 μl/well) and incubated for 2 hours at 25° C. The uncoated surfaces of the wells were blocked by adding 340 μl PBSC and incubating the plate for 1 hour at 25° C., followed by washing 3 times with PBSC. Dilutions of Ig-HRP in C1q buffer (50 mM Tris, pH 7.2, 27 mM NaCl, 1 mM CaCl2, 0.01% (wt/v) Thimerosal) were incubated in the wells (100 μl/well) for 1 hour at 25° C. followed by washing 3 times with C1q buffer. OPD substrate buffer was then added (100 μl/well), and the colored product was measured at 414 nm in a Titertek Multiskan plate reader.
# C1q was coated onto the surface of the wells of a microtiter plate as described in Part C. […] OPD substrate buffer (100 μl/well) was then added and the colored product measured at 414 nm in a Titertek Mutiskan plate reader.
# [4] = test system: human C1q binding to PAECs; assay: Immunohistochemical staining of PAECs for binding of human C1q; format: cell-based; conditions: CBP2 1.2 mM
# Procedure: PAECs (1×10^4) in 1 ml of CCM were added to each well of a 4-chamber culture slide (Labtek, Nunc, Naperville, Ill.), and the cells were grown to confluence (incubation for 3 days at 37° C. in 5% CO2 -95% air). The medium was removed, and the slide was washed with PBS (10 mM phosphate buffered saline, pH 7.4, containing 120 mM NaCl and 2.7 mM KCl, Sigma Chemical Co.) in a swirling motion for 5 sec. This was repeated with distilled water and 100% ethanol. The slide was tapped dry and immersed in pre-chilled (-20° C.) acetone for 20 min and then air dried.
# HI-HS was added to the wells, and the slide was incubated for 15 min at 37° C. to allow human IgG and IgM antibodies to bind to PAEC epitopes. The HI-HS was removed, and the wells were washed 3 times with PBS. C1q or C1q plus peptide in PBS containing 1% bovine serum albumin (BSA, Sigma Chemical Co.) (PBSA) was then added, and the slide was incubated for 15 min at room temperature. The solutions were removed, and the wells were washed 3 times with PBS. Blocking serum was added [10% donkey serum (The Binding Site, Birmingham, England) in PBS], and the slide was incubated for 20 minutes at room temperature. […] Staining of the cells was analyzed on a Zeiss Axioskop (Carl Zeiss, Oberkochen, Germany) with a wide band FITC filter.
# [5] = biological target: T1, HRP enzyme (Armoracia rusticana, UniProt P00433); assay: Control: effect of CBP2 on the HRP enzyme; format: biochemical, horseradish; conditions: 50 μM CBP2, 3 hours 37° C.
# T1 construct: purchased Zymed Laboratories, Inc
# T1 sequence (P00433 31-338 limits assumed): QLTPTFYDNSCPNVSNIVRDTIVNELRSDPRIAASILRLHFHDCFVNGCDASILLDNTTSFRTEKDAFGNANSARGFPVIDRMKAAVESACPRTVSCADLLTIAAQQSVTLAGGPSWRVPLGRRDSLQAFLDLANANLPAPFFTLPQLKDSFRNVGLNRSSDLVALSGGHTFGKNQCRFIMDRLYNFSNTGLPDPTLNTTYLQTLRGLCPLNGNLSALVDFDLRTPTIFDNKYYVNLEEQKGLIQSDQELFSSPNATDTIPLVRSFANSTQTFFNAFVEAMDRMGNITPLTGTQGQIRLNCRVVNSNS
# T1 sequence (P01870 whole entry partner): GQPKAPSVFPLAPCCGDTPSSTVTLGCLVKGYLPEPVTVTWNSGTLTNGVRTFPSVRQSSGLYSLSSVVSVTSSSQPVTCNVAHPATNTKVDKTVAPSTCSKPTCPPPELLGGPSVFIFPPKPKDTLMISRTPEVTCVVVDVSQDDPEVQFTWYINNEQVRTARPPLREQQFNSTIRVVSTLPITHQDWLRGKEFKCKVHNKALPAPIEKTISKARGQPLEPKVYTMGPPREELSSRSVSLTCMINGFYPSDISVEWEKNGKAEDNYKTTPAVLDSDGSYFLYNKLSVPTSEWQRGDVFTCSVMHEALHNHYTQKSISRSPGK
# T1 sequence (P01840 whole entry partner): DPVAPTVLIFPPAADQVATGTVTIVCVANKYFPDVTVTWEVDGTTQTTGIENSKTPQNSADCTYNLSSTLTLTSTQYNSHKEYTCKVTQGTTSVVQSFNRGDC
# Procedure: 1. […] Aliquots of 100 μl were placed in the wells of a microtiter plate and an equal volume of OPD substrate buffer was added, and the colored product was measured at 414 nm.
# [6] = test system: PAP binding to solid phase CBP2; assay: Elution or inhibition of PAP binding to the CBP2 column by solution peptide; parameters: species or system rabbit; conditions: for PAP binding to solid phase CBP2 after pre-incubation with peptide: 0.1 mM peptide, 1 hour 25° C., PAP 20 μg/ml; for elution of bound PAP from CBP2 column by peptide wash: 3 ml of 336.2 μg/ml CBP2 or equimolar LHRH
# Chain of PAP binding to solid phase CBP2 (P01870 whole entry): as the sequence (P01870 whole entry partner) above
# Procedure: An additional 6 ml of C1q buffer was used to wash the column followed by 3 ml of 2% (v/v) acetic acid and then with 6 ml of C1q buffer to completely wash the column.
# The sample was then eluted with 21 ml C1q buffer followed by 3 ml of 2% (v/v) acetic acid and then 6 ml C1q buffer. The column fractions were assayed for the presence of peroxidase as described above in Part A, and the concentration of PAP was calculated from the standard curve data.
# This was not the case, however, since similar concentrations were used for column elution as for the pre-incubation studies. […] Thus, the effect of aggregates, if they formed, was of little significance.
# [7] = test system: pig aorta endothelial cells (PAECs), human serum; assay: Chromium release assay (PAEC assay); format: cell-based
# Procedure: Culture plates (Falcon 24-well plates, Becton Dickinson, Lincoln Park, N.J.) were coated by addition of 0.5 ml/well of 2% gelatin (Type B, from bovine skin, Sigma Chemical Co.) diluted 1:10 in Hanks buffered salt solution (Gibco BRL, Grand Island, N.Y.), followed by incubation for 15 min at room temperature. The gelatin solution was removed, and 125×10^3 pig aorta endothelial cells (PAECs, Cell Systems, Kirkland, Wash.) in 2 ml of cell culture medium (CCM, Dulbecco's modified Eagle's medium (DMEM) with high glucose (Gibco BRL) containing 20% defined fetal bovine serum (FBS, HyClone Laboratories, Logan, Utah) that had been heat inactived for 30 min at 56° C., 1%(v/v) L-glutamine (200 mM, Gibco BRL) and penicillin G sodium (10,000 units/ml)/streptomycin sulfate (10,000 μg/ml in 0.85% saline, Gibco BRL)] were added per well. The plate was centrifuged in a model GS-6R Beckman table top centrifuge at 20×g for 2 min with the brake off to settle the cells onto the gelatin in a even monolayer, after which the plate was incubated at 37° C. in 5% CO2 -95% air. After 4 hours, cell attachment had occurred, and the CCM was removed and replaced with 2 ml of fresh CCM. In 2-4 days the PAECs had grown to 80-100% confluence and were used in the complement mediated chromium release assay.
# The PAECs were washed 3 times with 1 ml of serum free medium (SFM), leaving the SFM on the cells for 5 min each time. Chromium radioisotope (^51 Cr, NaCrO4, Amersham Corp., Arlington Heights, Ill.) was diluted in SFM to give 40 μCi/ml, and 100 μl were added to each well of the PAEC culture plate. The plate was incubated for 2 hours at 37° C. in 5% CO2 -95% air. The wells were washed three times with 1 ml of SFM. Then, 1 ml of PBS was added to each well, and the plate was incubated at 37° C. for 30 min to help reduce ^51 Cr background.
# The various peptide inhibitors (diluted in SFM) were added (300 μl/well) and incubated with the PAECs at 37° C. for 30 min. Undiluted human serum (HS, 100 μl) or 100 μl of heat inactivated human serum (HIHS) was added to each well, and the plate was incubated at 37° C. for 1 hour. Supernatant (200 μl) was removed from each well and added to 200 μl of scintillation cocktail (OptiPhase `Supermix`, Wallac Inc., Turku, Finland) previously added to each well of a 24-well polyethylene terephtalate reading plate (Wallac Inc.), and the plate was sealed with an acetate plate sealer (Dynatech Laboratories, Chantilly, Va.). The reading plate was placed on a shaker for 5 min to obtain a homogeneous mixture. Radioactivity (CPMs) of the wells was counted for 2 min using the 1450 MicroBeta PLUS plate reader (Wallac Inc.).
# Total counts of ^51 Cr were determined from 200 μl aliquots taken from the wells to which 100 μl of 5% Triton X-100 (Sigma Chemical Co.) had been added. Total complement mediated lysis was determined from wells treated with HS alone, and background counts were determined from wells treated with HI-HS alone or with peptide alone (no HS). The average background was subtracted from all well counts, and the percent inhibition calculated as total lysis minus lysis with inhibitor/total lysis multiplied by 100. All experimental points were obtained in triplicate, and the data were analyzed in the same manner as the data from the SRBC assays.
# [8] = test system: guinea pig hearts transplanted into C6 deficient PVG rats; assay: Heterotopic heart transplantation; format: in vivo, rat; conditions: pump 2ML4 (15.6 mg CBP2) plus i.v. 15.6 mg on day 2; 2 rats, individual values
# Procedure: Four to six week old guinea pigs (GP, Harlan, Indianapolis, Ind.) hearts were transplanted into C6 deficient PVG rats (B&K, Kent, Wash.) by a modification of the technique described by Ono and Lindsay (Journal of Thoracic Cardiovascular Surgery, 57, 225, 1969). Seven of the rats receiving GP hearts were not treated, 8 additional rats receiving GP hearts were treated with a single pre-transplant intravenous injection of a 3 ml cocktail of CBP3 [SEQ ID NO:4] (0.67 mg/ml) and 1.03 mg/ml of AEK [SEQ ID NO:5]. CBP3, 15.4 mg, was dissolved in 1.1 ml of 60% DMF in H2 O and AEK, 10 mg, was dissolved on 0.5 ml H2 O. Two hundred μl of CBP3 and 100 μl of AEK were added to 2.7 ml of 1:5 diluted (in PBS) heat-inactivated PVG C6 deficient rat serum. The GP transplanted hearts were monitored several times daily, and the times noted when the hearts stopped beating.
# Two additional PVG C6 deficient rats were transplanted with GP hearts.
# In a separate experiment, two C6 deficient PVG rats were transplanted with GP hearts.
# [9] = highest concentration (1 mM) tested
# [10] = same concentration range as CBP2
substance,measurement,setting,value
"LEQGENVFLQATLLC [CBP2, C1q B chain residues 189-200 plus Leu Leu Cys at the carboxyl terminus]",% Inhibition SRBC Assay +/- S.D.,[1]; 31 μM,0.0 +/- 0.0%
same,% Inhibition SRBC Assay +/- S.D.,[1]; 62.5 μM,13.5% and 13.5 +/- 9.3%
same,% Inhibition SRBC Assay +/- S.D.,[1]; 125 μM,45.2 +/- 30.8%
same,% Inhibition SRBC Assay +/- S.D.,[1]; 250 μM,78.0 +/- 18.3%
same,% Inhibition SRBC Assay +/- S.D.,[1]; 1000 μM,97.4 +/- 2.7%
same,inhibition of Protein A binding of Ig-HRP (maximum),[2],~100%
same,effect of DTT on the inhibitory activity of CBP2,"[2]; 4 mg/ml DTT, 2 hours 37° C., solid phase Protein A",no effect
same,IC50,"[2]; Ig-HRP 1:5000 in PBS, preincubated 1 hour 37° C., read-out: concentration at 50% inhibition of Protein A binding of Ig-HRP",~1000 nM
same,IC50,"[3]; Ig-HRP 1:100 in C1q buffer, 25° C., read-out: 50% inhibition concentration, Ig-HRP binding to solid phase C1q",~10000 nM
same,C1q binding to PAECs (immunohistochemical staining),[4],only trace binding of C1q
same,effect on the HRP enzyme,[5],did not inhibit the HRP enzyme
same,PAP binding to solid phase CBP2 after pre-incubation with peptide,[6],dramatic loss of PAP binding
same,elution of bound PAP from CBP2 column by peptide wash,[6],small but significant PAP peak which was eluted from the column
same,inhibition of PAP binding to CBP2 column,[6]; PAP pre-incubated with 156 μg/ml CBP2,approximately 40%
same,% Inhibition PAEC Assay +/- S.D.,[7]; 31 μM,2.0 +/- 3.1%
same,% Inhibition PAEC Assay +/- S.D.,[7]; 62.5 μM,10.6% and 10.6 +/- 13.5%
same,% Inhibition PAEC Assay +/- S.D.,[7]; 125 μM,25.0 +/- 14.8%
same,% Inhibition PAEC Assay +/- S.D.,[7]; 250 μM,64.4 +/- 8.4%
same,% Inhibition PAEC Assay +/- S.D.,[7]; 500 μM,87.2% and 87.2 +/- 3.8%
same,Graft Survival,[8],4 days and 5 days
"Protein A: recombinant Protein A from Repligen, positive control in solution phase [reference compound]",IC50,"[2]; Ig-HRP binding to solid phase Protein A, read-out: 50% inhibition concentration for solution phase Protein A",1 nM
"Ac-AEAKAKA-NH2 [AEK, Ac-Ala Glu Ala Lys Ala Lys Ala-NH2]",inhibitory activity in the SRBC assay,[1]; [9],no inhibitory activity
same,inhibitory activity in the PAEC assay,[7]; [9],no inhibitory activity
"C1q: complement component C1q, gift of Immtech International, liquid phase positive control",IC50,[3]; read-out: 50% inhibition concentration for liquid phase C1q inhibiting solid phase C1q,~10 nM
"luteinizing hormone releasing hormone [LHRH, reference compound]",Protein A inhibitory activity,[2]; [10],no Protein A or C1q inhibitory activity
same,C1q inhibitory activity,[3]; [10],no Protein A or C1q inhibitory activity
same,PAP binding to solid phase CBP2 after pre-incubation with peptide,[6],PAP binding to the column in the range normally observed
same,elution of bound PAP from CBP2 column by peptide wash,[6],no significant elution of PAP

# From patent publication US5932483A, “Synthetic peptide and its uses” (Northwestern University, priority 1996, dated 1999)
